Results taken from patent US9765091B2, “Tetrahydropyrazolo [3,4-b] azepine derivatives and their use as allosteric modulators of metabotropic glutamate receptors” (Addex Pharma S.A., priority 2010, dated 2017).

Biological target: T1, human mGluR4 (Homo sapiens, UniProt Q14833)
T1 construct: expressed in transfected cells
Assay: Fluorescent cell based Ca2+ mobilization assay (FLIPR) on HEK-293 cells expressing human mGluR4
Settings: positive allosteric modulation, HEK-293 cells expressing hmGluR4, stimulated by EC25 glutamate; mean of at least three independent experiments in duplicate; read-out: Ca^2+ Flux* (mean EC50)
Description: mGluR4 Assay on HEK-Expressing Human mGluR4
The compounds of the present invention are positive allosteric modulators of mGluR4 receptor. Their activity was examined on recombinant human mGluR4a receptors by detecting changes in intracellular Ca^2+ concentration, using the fluorescent Ca^2+-sensitive dye Fluo4-(AM) and a Fluorometric Imaging Plate Reader (FLIPR, Molecular Devices, Sunnyvale, Calif.).
The cDNA encoding the human metabotropic glutamate receptor (hmGluR4), (accession number NM_000841.1, NCBI Nucleotide database browser), was subcloned into an expression vector containing also the hygromycin resistance gene. In parallel, the cDNA encoding a G protein allowing redirection of the activation signal to intracellular calcium flux was subcloned into a different expression vector containing also the puromycin resistance gene. Transfection of both these vectors into HEK293 cells with PolyFect reagent (Qiagen) according to supplier's protocol, and hygromycin and puromycin treatment allowed selection of antibiotic resistant cells which had integrated stably one or more copies of the plasmids. Positive cellular clones expressing hmGluR4 were identified in a functional assay measuring changes in calcium fluxes in response to glutamate or selective known mGluR4 orthosteric agonists and antagonists. HEK-293 cells expressing hmGluR4 were maintained in media containing DMEM, dialyzed Fetal Calf Serum (10%), Glutamax™ (2 mM), Penicillin (100 units/mL), Streptomycin (100 μg/mL), Geneticin (100 μg/mL) and Hygromycin-B (40 μg/mL) and puromycin (1 μg/mL) at 37° C./5% CO2.
Human mGluR4 HEK-293 cells were plated out 24 hours prior to FLIPR^384 assay in black-walled, clear-bottomed, poly-L-ornithine-coated 384-well plates at a density of 25,000 cells/well in a glutamine/glutamate free DMEM medium containing foetal bovine serum (10%), penicillin (100 units/mL) and streptomycin (100 μg/mL) at 37° C./5% CO2.
On the day of the assay, the medium was aspirated and the cells were loaded with a 3 μM solution of Fluo4-AM (LuBioScience, Lucerne, Switzerland) in 0.03% pluronic acid. After 1 hour at 37° C./5% CO2, the non incorporated dye was removed by washing cell plate with the assay buffer and the cells were left in the dark at room temperature for […] before testing. All assays were performed in a pH 7.4 buffered-solution containing 20 mM HEPES, 143 mM NaCl, 6 mM KCl, 1 mM MgSO4, 1 mM CaCl2, 0.125 mM sulfapyrazone and 0.1% glucose.
After 10 s of basal fluorescence recording, various concentrations of the compounds of the invention were added to the cells. Changes in fluorescence levels were first monitored for 180 s in order to detect any agonist activity of the compounds. Then the cells were stimulated by an EC25 glutamate concentration for an additional 110 s in order to measure enhancing activities of the compounds of the invention. EC25 glutamate concentration is the concentration giving 25% of the maximal glutamate response.
The concentration-response curves of representative compounds of the present invention were generated using the Prism GraphPad software (Graph Pad Inc, San Diego, USA). The curves were fitted to a four-parameter logistic equation: (Y=Bottom+(Top−Bottom)/(1+10^((Log EC50−X)*Hill Slope) allowing the determination of EC50 values.
The Table 4 below represents the mean EC50 obtained from at least three independent experiments of selected molecules performed in duplicate.

T1 sequence (Q14833 33-912): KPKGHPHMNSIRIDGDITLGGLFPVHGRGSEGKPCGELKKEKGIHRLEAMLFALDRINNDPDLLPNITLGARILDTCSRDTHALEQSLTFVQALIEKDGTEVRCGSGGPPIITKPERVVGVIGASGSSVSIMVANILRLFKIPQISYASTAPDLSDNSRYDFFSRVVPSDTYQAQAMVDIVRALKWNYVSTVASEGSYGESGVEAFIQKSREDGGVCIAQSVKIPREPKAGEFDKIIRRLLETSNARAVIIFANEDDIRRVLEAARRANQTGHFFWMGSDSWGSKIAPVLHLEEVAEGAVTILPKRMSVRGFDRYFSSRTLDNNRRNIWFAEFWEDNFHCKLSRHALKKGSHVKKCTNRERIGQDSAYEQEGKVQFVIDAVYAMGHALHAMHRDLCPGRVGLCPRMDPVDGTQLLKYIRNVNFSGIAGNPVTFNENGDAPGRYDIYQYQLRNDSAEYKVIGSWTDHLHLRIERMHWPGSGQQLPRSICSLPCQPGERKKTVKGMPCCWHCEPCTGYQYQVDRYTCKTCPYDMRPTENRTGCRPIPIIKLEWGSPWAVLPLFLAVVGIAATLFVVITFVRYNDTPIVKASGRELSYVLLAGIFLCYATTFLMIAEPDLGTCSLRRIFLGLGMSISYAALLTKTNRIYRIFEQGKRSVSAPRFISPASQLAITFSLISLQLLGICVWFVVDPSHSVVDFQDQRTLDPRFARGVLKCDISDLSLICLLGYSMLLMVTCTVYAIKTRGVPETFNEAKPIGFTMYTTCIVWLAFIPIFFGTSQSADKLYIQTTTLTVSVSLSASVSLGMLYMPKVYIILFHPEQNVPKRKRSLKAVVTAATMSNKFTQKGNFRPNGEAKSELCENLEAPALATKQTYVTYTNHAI

`Cc1ccnc(Nc2nc3c(s2)CCN(Cc2ccn(C)n2)c2n[nH]cc2-3)n1` [Compound 1-16, 6-((1-Methyl-1H-pyrazol-3-yl)methyl)-N-(4-methylpyrimidin-2-yl)-4,5,6,8-tetrahydropyrazolo[3,4-b]thiazolo[4,5-d]azepin-2-amine] and `CCN1CCc2sc(Nc3nccc(C)n3)nc2-c2c[nH]nc21` [Compound 1-3, 6-Ethyl-N-(4-methylpyrimidin-2-yl)-4,5,6,8-tetrahydropyrazolo[3,4-b]thiazolo[4,5-d]azepin-2-amine] cannot be ordered by EC50: less than 100 nM for the first, less than 100 nM for the second.

`Fc1ccc(CN2CCc3sc(Nc4ncc(F)cn4)nc3-c3cn[nH]c32)nc1` [Compound 1-61, 6-((5-Fluoropyridin-2-yl)methyl)-N-(5-fluoropyrimidin-2-yl)-4,5,6,7-tetrahydropyrazolo[3,4-b]thiazolo[4,5-d]azepin-2-amine] and `COc1ccc(CN2CCc3sc(Nc4ncc(F)cn4)nc3-c3cn[nH]c32)nc1` [Compound 1-77, N-(5-Fluoropyrimidin-2-yl)-6-((5-methoxypyridin-2-yl)methyl)-4,5,6,7-tetrahydropyrazolo[3,4-b]thiazolo[4,5-d]azepin-2-amine] cannot be ordered by EC50: less than 100 nM for the first, less than 100 nM for the second.

`COCCN1CCc2sc(Nc3cccc(CF)n3)nc2-c2cn[nH]c21` [Compound 1-83, N-(6-(Fluoromethyl)pyridin-2-yl)-6-(2-methoxyethyl)-4,5,6,7-tetrahydropyrazolo[3,4-b]thiazolo[4,5-d]azepin-2-amine] and `COCCN1CCc2sc(Nc3nc(C)ccc3F)nc2-c2cn[nH]c21` [Compound 1-66, N-(3-Fluoro-6-methylpyridin-2-yl)-6-(2-methoxyethyl)-4,5,6,7-tetrahydropyrazolo[3,4-b]thiazolo[4,5-d]azepin-2-amine] fall in the same range of EC50: 100 to 1000 nM for the first, 100 to 1000 nM for the second.

`Fc1cnc(Nc2nc3c(s2)CCN(Cc2ccncc2)c2n[nH]cc2-3)nc1` [Compound 1-27, N-(5-Fluoropyrimidin-2-yl)-6-(pyridin-4-ylmethyl)-4,5,6,8-tetrahydropyrazolo[3,4-b]thiazolo[4,5-d]azepin-2-amine] and `Fc1cnc(Nc2nc3c(s2)CCN(Cc2ccccn2)c2n[nH]cc2-3)nc1` [Compound 1-26, N-(5-Fluoropyrimidin-2-yl)-6-(pyridin-2-ylmethyl)-4,5,6,8-tetrahydropyrazolo[3,4-b]thiazolo[4,5-d]azepin-2-amine] cannot be ordered by EC50: less than 100 nM for the first, less than 100 nM for the second.

First: Fc1cnc(Nc2nc3c(s2)CCN(CCC(F)(F)F)c2n[nH]cc2-3)nc1 [Compound 1-29, N-(5-Fluoropyrimidin-2-yl)-6-(3,3,3-trifluoropropyl)-4,5,6,8-tetrahydropyrazolo[3,4-b]thiazolo[4,5-d]azepin-2-amine]
Second: COCCN1CCc2sc(Nc3ncc(F)cn3)nc2-c2c[nH]nc21 [Compound 1-12, N-(5-Fluoropyrimidin-2-yl)-6-(2-methoxyethyl)-4,5,6,8-tetrahydropyrazolo[3,4-b]thiazolo[4,5-d]azepin-2-amine]
The EC50 of the first is higher: 100 to 1000 nM for the first, less than 100 nM for the second. The second is the more potent here.

First: Fc1cnc(Nc2nc3c(s2)CCN(CC2CCCC2)c2n[nH]cc2-3)nc1 [Compound 1-36, 6-(Cyclopentylmethyl)-N-(5-fluoropyrimidin-2-yl)-4,5,6,8-tetrahydropyrazolo[3,4-b]thiazolo[4,5-d]azepin-2-amine]
Second: CNCCN1CCc2sc(Nc3ncc(F)cn3)nc2-c2c[nH]nc21 [Compound 1-32, N-(5-Fluoropyrimidin-2-yl)-6-(2-(methylamino)ethyl)-4,5,6,8-tetrahydropyrazolo[3,4-b]thiazolo[4,5-d]azepin-2-amine]
The EC50 of the first is lower: less than 100 nM for the first, 1000 to 10000 nM for the second.

Compared with `Cc1ccccc1CN1CCc2sc(Nc3ncc(F)cn3)nc2-c2cn[nH]c21` [Compound 1-59, N-(5-Fluoropyrimidin-2-yl)-6-(2-methylbenzyl)-4,5,6,7-tetrahydropyrazolo[3,4-b]thiazolo[4,5-d]azepin-2-amine], `Fc1cnc(Nc2nc3c(s2)CCN(Cc2ccccc2)c2[nH]ncc2-3)nc1` [Compound 1-45, 6-Benzyl-N-(5-fluoropyrimidin-2-yl)-4,5,6,7-tetrahydropyrazolo[3,4-b]thiazolo[4,5-d]azepin-2-amine] is lower in EC50: 1000 to 10000 nM for the first, less than 100 nM for the second.

First: CC(c1ccc(Cl)cn1)N1CCc2sc(Nc3ncc(F)cn3)nc2-c2cn[nH]c21 (centres unmarked) [Compound 1-81, 6-(1-(5-Chloropyridin-2-yl)ethyl)-N-(5-fluoropyrimidin-2-yl)-4,5,6,7-tetrahydropyrazolo[3,4-b]thiazolo[4,5-d]azepin-2-amine]
Second: Fc1cnc(Nc2nc3c(s2)CCN(Cc2ccc(Cl)cc2)c2[nH]ncc2-3)nc1 [Compound 1-58, 6-(4-Chlorobenzyl)-N-(5-fluoropyrimidin-2-yl)-4,5,6,7-tetrahydropyrazolo[3,4-b]thiazolo[4,5-d]azepin-2-amine]
The EC50 of the first is lower: less than 100 nM for the first, 100 to 1000 nM for the second. The first is the more potent here.

`Fc1cnc(Nc2nc3c(s2)CCN(CC2CCNCC2)c2[nH]ncc2-3)nc1` [Compound 1-78, N-(5-Fluoropyrimidin-2-yl)-6-(piperidin-4-ylmethyl)-4,5,6,7-tetrahydropyrazolo[3,4-b]thiazolo[4,5-d]azepin-2-amine] and `Fc1cnc(Nc2nc3c(s2)CCN(C2CCC2)c2[nH]ncc2-3)nc1` [Compound 1-82, 6-Cyclobutyl-N-(5-fluoropyrimidin-2-yl)-4,5,6,7-tetrahydropyrazolo[3,4-b]thiazolo[4,5-d]azepin-2-amine] fall in the same range of EC50: 1000 to 10000 nM for the first, 1000 to 10000 nM for the second.

`COCCN1CC(C)c2sc(Nc3ncc(F)cn3)nc2-c2cn[nH]c21` (centres unmarked) [Compound 1-84, N-(5-Fluoropyrimidin-2-yl)-6-(2-methoxyethyl)-4-methyl-4,5,6,7-tetrahydropyrazolo[3,4-b]thiazolo[4,5-d]azepin-2-amine] and `Fc1cnc(Nc2nc3c(s2)CCN(CC(F)(F)F)c2[nH]ncc2-3)nc1` [Compound 1-30, N-(5-Fluoropyrimidin-2-yl)-6-(2,2,2-trifluoroethyl)-4,5,6,7-tetrahydropyrazolo[3,4-b]thiazolo[4,5-d]azepin-2-amine] fall in the same range of EC50: 100 to 1000 nM for the first, 100 to 1000 nM for the second.

`CC(C)OCCN1CCc2sc(Nc3ncc(F)cn3)nc2-c2c[nH]nc21` [Compound 1-43, N-(5-Fluoropyrimidin-2-yl)-6-(2-isopropoxyethyl)-4,5,6,8-tetrahydropyrazolo[3,4-b]thiazolo[4,5-d]azepin-2-amine] and `CC(C)c1cc(CN2CCc3nc(Nc4ncc(F)cn4)sc3-c3c[nH]nc32)no1` [Compound 1-42] cannot be ordered by EC50: less than 100 nM for the first, less than 100 nM for the second.

`Cc1cccc(CN2CCc3sc(Nc4ncc(F)cn4)nc3-c3cn[nH]c32)n1` [Compound 1-70, N-(5-Fluoropyrimidin-2-yl)-6-((6-methylpyridin-2-yl)methyl)-4,5,6,7-tetrahydropyrazolo[3,4-b]thiazolo[4,5-d]azepin-2-amine] and `Cn1cnc(CN2CCc3sc(Nc4ncc(F)cn4)nc3-c3cn[nH]c32)c1` [Compound 1-80, N-(5-Fluoropyrimidin-2-yl)-6-((1-methyl-1H-imidazol-4-yl)methyl)-4,5,6,7-tetrahydropyrazolo[3,4-b]thiazolo[4,5-d]azepin-2-amine] fall in the same range of EC50: 100 to 1000 nM for the first, 100 to 1000 nM for the second.

`Cc1ccnc(Nc2nc3c(s2)CCN(CC2CCCO2)c2n[nH]cc2-3)n1` (centres unmarked) [Compound 1-10, N-(4-Methylpyrimidin-2-yl)-6-((tetrahydrofuran-2-yl)methyl)-4,5,6,8-tetrahydropyrazolo[3,4-b]thiazolo[4,5-d]azepin-2-amine] and `Cc1ccnc(CN2CCc3nc(Nc4ncc(F)cn4)sc3-c3cn[nH]c32)c1` [Compound 1-63] cannot be ordered by EC50: less than 100 nM for the first, less than 100 nM for the second.
